The record followed here is ChEMBL document CHEMBL1201862, “PubChem BioAssay data set” (2004).

Common to all, as to test: growth of human tumour cells (NCI), 48 h
The test system of experiment [1] is A549.
Experiment [2] concerns DU-145.
Experiment [3] relates to EKVX.
Experiment [4] concerns HCT-116.
For experiment [5], the system named is HCT-15.
Experiment [6] concerns HOP-92.
Experiment [7] has as its system LOX IMVI.
Experiment [8] has as its system M14.
For experiment [9], the system named is MDA-MB-231.
The test system of experiment [10] is MDA-MB-435.
Experiment [11] relates to Malme-3M.
The test system of experiment [12] is NCI-H460.
Experiment [13] concerns NCI-H522.
The subject of experiment [14] is OVCAR-3.
Experiment [15] relates to RXF 393.
For experiment [16], the system named is SK-MEL-2.
Experiment [17] has as its system SK-MEL-5.
Experiment [18] concerns SK-OV-3.
Experiment [19] relates to SNB-19.
In experiment [20] the test system is SR.

Each structure is given as a SMILES string.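 These data come from cells grown in 96-well plates and exposed to compound for 48 hours at five concentrations. GI50 = concentration required for 50% inhibition of growth.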 Calls of active or inactive are those of the source. Rule as the data show it: active = GI50 up to about 1.1 µM and inactive = higher. Where only a bound is given, the exact number is not on record here.

`COc1cc(CC2c3cc(OC)c(OC)cc3CCN2C)c(Oc2cc3c(cc2OC)-c2c(O)c(OC)cc4c2C(C3)N(C)CC4)cc1OC` (stereo not given): the GI50 is 33.2 µM (inactive) in experiment [1]; 24.1 µM (inactive) in [2]; 20.5 µM (inactive) in experiment [3]; 18.1 µM (inactive) in experiment [4]; 14 µM in experiment [5]; 14.5 µM (inactive) in experiment [6]. Moreover, the GI50 was 16.5 µM (inactive) in experiment [7]; 5.04 µM (inactive) in [8]; 18.3 µM (inactive) in experiment [9]; 24 µM (inactive) in [10]; 23.8 µM (inactive) in experiment [11]; 18.4 µM (inactive) in [12]. The GI50 in experiment [13] was 17.8 µM (inactive); in experiment [14], 20.4 µM (inactive); in experiment [15], 2.11 µM (inactive); in [16] it was 22.8 µM (inactive); in [17], 13.9 µM (inactive); in experiment [18], 41.1 µM (inactive). In addition, the GI50 in experiment [19] was 25.3 µM (inactive); in experiment [20] it was 3.68 µM (inactive).

For `O=C1CCCC2(c3ccccc3)Nc3ccccc3N12` (stereo not given), the GI50 in [1] was > 100 µM (inactive); in experiment [2] it was > 100 µM (inactive); in [3] it was > 100 µM (inactive); in [4] it was > 100 µM (inactive); in experiment [5], greater than 100 µM; in experiment [6], > 100 µM (inactive). The GI50 in experiment [7] was > 100 µM (inactive); in [8] it was > 100 µM (inactive); in experiment [9] it was > 100 µM (inactive); in experiment [10], > 100 µM (inactive); in experiment [11] it was > 100 µM (inactive); in experiment [12], 78.5 µM (inactive). Moreover, the GI50 in [13], in experiment [14], in experiment [15], in experiment [16], in experiment [17] and in experiment [18] was > 100 µM (inactive) in each case. In addition, the GI50 in experiment [19] was > 100 µM (inactive); in [20] it was 67.8 µM (inactive).

Turning to `COc1ccnc2c1C(=O)c1nc3ccccc3c3ccnc-2c13`, the GI50 in experiment [1] was 0.142 µM (active); in [2] it was 0.0479 µM (active); in experiment [3], 0.284 µM (active); in [4], 0.0902 µM (active); in [5], less than 0.01 µM; in experiment [6] it was 0.342 µM (active). The GI50 in experiment [7] was 0.155 µM (active); in experiment [8], 0.0418 µM (active); in experiment [9] it was 0.21 µM (active); in experiment [10] it was 0.396 µM (active); in experiment [11], 0.262 µM (active); in [12], 0.0232 µM (active). The GI50 is 0.0375 µM (active) in experiment [13]; 0.0353 µM (active) in experiment [14]; 0.231 µM (active) in experiment [15]; 0.789 µM (active) in experiment [16]; 0.0317 µM (active) in experiment [17]; 0.167 µM (active) in experiment [18]. The GI50 in experiment [19] was 0.182 µM (active); in experiment [20], 0.0343 µM (active).

Consider `Cc1cc2c(cc1-c1cc3c(cc1C)C(C(C)C)=C(O)C(=O)/C3=C\Nc1cccc3c(N)cccc13)/C(=C/Nc1cccc3c(N)cccc13)C(=O)C(O)=C2C(C)C`, for which the GI50 is 59.4 µM (inactive) in experiment [1]; > 100 µM (inactive) in experiment [2]; > 100 µM (inactive) in experiment [3]; > 100 µM (inactive) in experiment [4]; greater than 100 µM in experiment [5]; > 100 µM (inactive) in [6]. Also, the GI50 in [7] is > 100 µM (inactive); in experiment [8], 48.5 µM (inactive); in experiment [9], > 100 µM (inactive); in [10] it was > 100 µM (inactive); in [11] it was > 100 µM (inactive); in experiment [12] it was > 100 µM (inactive). In addition, the GI50 in experiment [13], in [14], in [15], in [16], in [17] and in experiment [18] was > 100 µM (inactive) in each case. Besides, the GI50 in [19] is > 100 µM (inactive); in [20], 65.8 µM (inactive).

Take `CSc1nnc(SCc2nn3c(=O)cc(C)nc3s2)s1`: the GI50 was > 100 µM (inactive) in [1]; > 100 µM (inactive) in experiment [2]; > 100 µM (inactive) in experiment [3]; > 100 µM (inactive) in [4]; greater than 100 µM in experiment [5]; > 100 µM (inactive) in [6]. Also, the GI50 in [7], in [8], in [9], in [10], in experiment [11] and in experiment [12] was > 100 µM (inactive) in each case. Besides, the GI50 was > 100 µM (inactive) in [13]; > 100 µM (inactive) in experiment [14]; 66.8 µM (inactive) in experiment [15]; > 100 µM (inactive) in experiment [16]; > 100 µM (inactive) in [17]; > 100 µM (inactive) in [18]. Besides, the GI50 in [19] and in experiment [20] was > 100 µM (inactive) throughout.
